From patent US20130266636A1, “METHODS FOR BLOCKING CELL PROLIFERATION AND TREATING DISEASES AND CONDITIONS RESPONSIVE TO CELL GROWTH INHIBITION” (THE REGENTS OF THE UNIVERSITY OF CALIFORNIA, priority 2010, published 2013)
“Also recorded” adds a separate entry of the source.

Tests used:
786-0 = assay: NCI-60 panel growth inhibition; type: cell-based; details: Homo sapiens, Renal Cancer, mutated RAS No, mutated BRAF No
Excerpt: (§1) Table 1 summarizes KG5's effect in 60 NCI cancer cell lines: the NCI-60 panel showing the half maximal growth inhibitory concentration of KG5 and the RAS and BRAF status in 60 human cancer cell lines.

A498 = assay: NCI-60 panel growth inhibition; type: cell-based; details: Homo sapiens, Renal Cancer, mutated RAS No, mutated BRAF No
Excerpt: as §1

A549/ATCC = assay: NCI-60 panel growth inhibition; type: cell-based; details: Homo sapiens, NSC Lung Cancer, mutated RAS Yes, mutated BRAF No
Excerpt: as §1

CAKI-1 = assay: NCI-60 panel growth inhibition; type: cell-based; details: Homo sapiens, Renal Cancer, mutated RAS No, mutated BRAF No
Excerpt: as §1

COLO 205 = assay: NCI-60 panel growth inhibition; type: cell-based; details: Homo sapiens, Colon Cancer, mutated RAS Yes, mutated BRAF No
Excerpt: as §1

DU-145 = assay: NCI-60 panel growth inhibition; type: cell-based; details: Homo sapiens, Prostate Cancer, mutated RAS No, mutated BRAF No
Excerpt: as §1

EKVX = assay: NCI-60 panel growth inhibition; type: cell-based; details: Homo sapiens, NSC Lung Cancer, mutated RAS No, mutated BRAF No
Excerpt: as §1

HCC-2998 = assay: NCI-60 panel growth inhibition; type: cell-based; details: Homo sapiens, Colon Cancer, mutated RAS No, mutated BRAF No
Excerpt: as §1

HCT-116 = assay: NCI-60 panel growth inhibition; type: cell-based; details: Homo sapiens, Colon Cancer, mutated RAS Yes
Excerpt: as §1

HCT-15 = assay: NCI-60 panel growth inhibition; type: cell-based; details: Homo sapiens, Colon Cancer, mutated RAS Yes, mutated BRAF Yes
Excerpt: as §1

HOP-62 = assay: NCI-60 panel growth inhibition; type: cell-based; details: Homo sapiens, NSC Lung Cancer, mutated RAS Yes, mutated BRAF No
Excerpt: as §1

HS 578T = assay: NCI-60 panel growth inhibition; type: cell-based; details: Homo sapiens, Breast Cancer, mutated RAS Yes, mutated BRAF No
Excerpt: as §1

IGROV1 = assay: NCI-60 panel growth inhibition; type: cell-based; details: Homo sapiens, IGROV-1; Ovarian Cancer; mutated RAS No; mutated BRAF No
Excerpt: as §1

K-562 = assay: NCI-60 panel growth inhibition; type: cell-based; details: Homo sapiens, K562; Leukemia; mutated RAS No; mutated BRAF No
Excerpt: as §1

LOX IMVI = assay: NCI-60 panel growth inhibition; type: cell-based; details: Homo sapiens, Melanoma, mutated RAS No, mutated BRAF Yes
Excerpt: as §1

MCF7 = assay: NCI-60 panel growth inhibition; type: cell-based; details: Homo sapiens, Breast Cancer, mutated RAS No, mutated BRAF No
Excerpt: as §1

MDA-MB-231/ATCC = assay: NCI-60 panel growth inhibition; type: cell-based; details: Homo sapiens, Breast Cancer, mutated RAS Yes, mutated BRAF Yes
Excerpt: as §1

MDA-MB-435 = assay: NCI-60 panel growth inhibition; type: cell-based; details: Homo sapiens, Melanoma, mutated RAS No, mutated BRAF Yes
Excerpt: as §1

MDA-MB-468 = assay: NCI-60 panel growth inhibition; type: cell-based; details: Homo sapiens, Breast Cancer, mutated RAS No, mutated BRAF No
Excerpt: as §1

MOLT-4 = assay: NCI-60 panel growth inhibition; type: cell-based; details: Homo sapiens, Leukemia, mutated RAS Yes, mutated BRAF No
Excerpt: as §1

NCI-H226 = assay: NCI-60 panel growth inhibition; type: cell-based; details: Homo sapiens, NSC Lung Cancer, mutated RAS No, mutated BRAF No
Excerpt: as §1

NCI-H23 = assay: NCI-60 panel growth inhibition; type: cell-based; details: Homo sapiens, NSC Lung Cancer, mutated RAS Yes, mutated BRAF No
Excerpt: as §1

NCI-H322M = assay: NCI-60 panel growth inhibition; type: cell-based; details: Homo sapiens, NSC Lung Cancer, mutated RAS No, mutated BRAF No
Excerpt: as §1

NCI/ADR-RES = assay: NCI-60 panel growth inhibition; type: cell-based; details: Homo sapiens, Ovarian Cancer, mutated RAS No, mutated BRAF No
Excerpt: as §1

OVCAR-3 = assay: NCI-60 panel growth inhibition; type: cell-based; details: Homo sapiens, Ovarian Cancer, mutated RAS No, mutated BRAF No
Excerpt: as §1

OVCAR-4 = assay: NCI-60 panel growth inhibition; type: cell-based; details: Homo sapiens, Ovarian Cancer, mutated RAS No, mutated BRAF No
Excerpt: as §1

OVCAR-5 = assay: NCI-60 panel growth inhibition; type: cell-based; details: Homo sapiens, Ovarian Cancer, mutated RAS Yes, mutated BRAF No
Excerpt: as §1

OVCAR-8 = assay: NCI-60 panel growth inhibition; type: cell-based; details: Homo sapiens, Ovarian Cancer, mutated RAS No, mutated BRAF No
Excerpt: as §1

PC-3 = assay: NCI-60 panel growth inhibition; type: cell-based; details: Homo sapiens, Prostate Cancer, mutated RAS No, mutated BRAF No
Excerpt: as §1

SF-295 = assay: NCI-60 panel growth inhibition; type: cell-based; details: Homo sapiens, CNS Cancer, mutated RAS No, mutated BRAF No
Excerpt: as §1

SK-MEL-28 = assay: NCI-60 panel growth inhibition; type: cell-based; details: Homo sapiens, Melanoma, mutated RAS No, mutated BRAF Yes
Excerpt: as §1

SK-MEL-5 = assay: NCI-60 panel growth inhibition; type: cell-based; details: Homo sapiens, Melanoma, mutated RAS No, mutated BRAF Yes
Excerpt: as §1

SK-OV-3 = assay: NCI-60 panel growth inhibition; type: cell-based; details: Homo sapiens, Ovarian Cancer, mutated RAS No, mutated BRAF No
Excerpt: as §1

SN12C = assay: NCI-60 panel growth inhibition; type: cell-based; details: Homo sapiens, Renal Cancer, mutated RAS No, mutated BRAF No
Excerpt: as §1

SNB-75 = assay: NCI-60 panel growth inhibition; type: cell-based; details: Homo sapiens, CNS Cancer, mutated RAS No, mutated BRAF No
Excerpt: as §1

UACC-257 = assay: NCI-60 panel growth inhibition; type: cell-based; details: Homo sapiens, Melanoma, mutated RAS No, mutated BRAF Yes
Excerpt: as §1

UACC-62 = assay: NCI-60 panel growth inhibition; type: cell-based; details: Homo sapiens, Melanoma, mutated RAS No, mutated BRAF Yes
Excerpt: as §1

NCI-60 panel = NCI-60 panel growth inhibition, overall; type: cell-based, human
Excerpt: FIG. 8 illustrates […] panel showing the half maximal growth inhibitory concentration of KG5 in […] human cancer cell lines.
as §1

PDGFRβ = PDGFRβ (Homo sapiens, UniProt P09619); details: in response to PDGF-BB; cited from earlier work
Sequence of PDGFRβ (P09619 33-1106, species assumed): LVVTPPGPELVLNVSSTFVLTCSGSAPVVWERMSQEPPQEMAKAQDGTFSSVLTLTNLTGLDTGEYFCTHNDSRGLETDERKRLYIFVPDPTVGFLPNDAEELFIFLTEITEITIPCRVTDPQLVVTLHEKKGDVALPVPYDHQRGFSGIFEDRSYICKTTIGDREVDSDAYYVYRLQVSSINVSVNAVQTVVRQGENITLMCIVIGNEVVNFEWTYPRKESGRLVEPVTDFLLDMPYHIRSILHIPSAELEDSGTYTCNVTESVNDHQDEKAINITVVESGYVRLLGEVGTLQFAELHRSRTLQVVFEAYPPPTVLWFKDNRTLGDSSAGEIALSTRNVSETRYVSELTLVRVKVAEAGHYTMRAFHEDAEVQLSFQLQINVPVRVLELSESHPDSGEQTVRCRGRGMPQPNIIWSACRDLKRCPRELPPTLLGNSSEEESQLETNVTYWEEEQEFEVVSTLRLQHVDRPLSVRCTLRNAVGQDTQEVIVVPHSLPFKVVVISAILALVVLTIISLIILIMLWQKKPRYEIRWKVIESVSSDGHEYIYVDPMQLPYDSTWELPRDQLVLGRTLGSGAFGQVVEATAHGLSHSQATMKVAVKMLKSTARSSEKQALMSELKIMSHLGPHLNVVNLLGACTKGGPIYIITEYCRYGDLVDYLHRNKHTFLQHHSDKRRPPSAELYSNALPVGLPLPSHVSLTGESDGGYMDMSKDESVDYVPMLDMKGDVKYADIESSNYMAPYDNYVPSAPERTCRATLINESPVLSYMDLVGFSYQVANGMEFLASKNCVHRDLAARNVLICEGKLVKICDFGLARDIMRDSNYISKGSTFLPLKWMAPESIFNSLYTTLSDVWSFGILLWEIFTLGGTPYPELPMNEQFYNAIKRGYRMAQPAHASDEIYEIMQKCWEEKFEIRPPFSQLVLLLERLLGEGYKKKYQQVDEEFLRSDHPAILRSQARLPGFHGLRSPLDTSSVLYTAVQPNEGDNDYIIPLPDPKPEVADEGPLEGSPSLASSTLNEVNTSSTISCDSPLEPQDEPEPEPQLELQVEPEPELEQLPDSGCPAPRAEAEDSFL

CSc1nc(N)cc(Oc2ccc(-c3nnc(Nc4cccc(C(F)(F)F)c4)[nH]3)cc2)n1 [KG5]
GI50 (786-0): 490 nM
GI50 (A498): 468 nM
GI50 (A549/ATCC): 501 nM
GI50 (CAKI-1): 417 nM
GI50 (COLO 205): 407 nM
GI50 (DU-145): 457 nM
GI50 (EKVX): 501 nM
GI50 (HCC-2998): 1410 nM
GI50 (HCT-116): 457 nM
GI50 (HCT-15): 490 nM
GI50 (HOP-62): 589 nM
GI50 (HS 578T): 437 nM
GI50 (IGROV1): 447 nM
GI50 (K-562): 513 nM
GI50 (LOX IMVI): 851 nM
GI50 (MCF7): 355 nM
GI50 (MDA-MB-231/ATCC): 1480 nM
GI50 (MDA-MB-435): 195 nM
GI50 (MDA-MB-468): 191 nM
GI50 (MOLT-4): 912 nM
GI50 (NCI-H226): 1780 nM
GI50 (NCI-H23): 525 nM
GI50 (NCI-H322M): 525 nM
GI50 (NCI/ADR-RES): 437 nM
GI50 (OVCAR-3): 251 nM
GI50 (OVCAR-4): 575 nM
GI50 (OVCAR-5): 1550 nM
GI50 (OVCAR-8): 479 nM
GI50 (PC-3): 282 nM
GI50 (SF-295): 427 nM
GI50 (SK-MEL-28): 1580 nM
GI50 (SK-MEL-5): 389 nM
GI50 (SK-OV-3): 562 nM
GI50 (SN12C): 912 nM
GI50 (SNB-75): 245 nM
GI50 (UACC-257): 407 nM
GI50 (UACC-62): 501 nM
growth inhibitory activity against the NCI-60 panel (NCI-60 panel): inhibits the growth of several human cancer cell lines; also recorded: broad growth inhibitory activity
PDGFRβ autophosphorylation (PDGFRβ): directly impacts PDGFRβ autophosphorylation
